Results reported in PubChem BioAssay AID1918934 (Molecular Pharmacology Branch, DTP, NCI, 2023).

Test system: 292921-168-R-J2-PDC complex spheroid viability
Experiment: Anticancer human tumor 292921-168-R-J2-PDC patient-derived pancreatic carcinoma cell line growth inhibition
Settings: for IC50: curve of first compound; for viability, T/C: stronger effect = lower value; active = viability on the fitted dose curve at most 10% of control; inactive = the rest
Outline: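 Complex spheroids of tumor cells with HUVEC and human MSCs, exposed to iadademstat combined with other agents. Each agent tested in half-log steps from near clinical Cmax (else 10 microM top), DMSO ≤0.25%.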

[1] = second compound 0.1 µM, first compound 0.00949 µM
[2] = second compound 0.1 µM, first compound 0.03 µM
[3] = second compound 0.1 µM, first compound 0.0949 µM
[4] = second compound 0.1 µM, first compound 0.3 µM
[5] = second compound 0.316 µM, first compound 0.00949 µM
[6] = second compound 0.316 µM, first compound 0.03 µM
[7] = second compound 0.316 µM, first compound 0.0949 µM
[8] = second compound 0.316 µM, first compound 0.3 µM
[9] = second compound 1 µM, first compound 0.00949 µM
[10] = second compound 1 µM, first compound 0.03 µM
[11] = second compound 1 µM, first compound 0.0949 µM
[12] = second compound 1 µM, first compound 0.3 µM
[13] = second compound 3.16 µM, first compound 0.00949 µM
[14] = second compound 3.16 µM, first compound 0.03 µM
[15] = second compound 3.16 µM, first compound 0.0949 µM
[16] = second compound 3.16 µM, first compound 0.3 µM
[17] = second compound 10 µM, first compound 0.00949 µM
[18] = second compound 10 µM, first compound 0.03 µM
[19] = second compound 10 µM, first compound 0.0949 µM
[20] = second compound 10 µM, first compound 0.3 µM
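Also: seven day compound exposure before luminescent viability read.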
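For viability, T/C in this document: 100% = DMSO vehicle control wells.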

CCc1c2c(nc3ccc(O)cc13)-c1cc3c(c(=O)n1C2)COC(=O)[C@]3(O)CC + NC1CC1c1ccc(-c2cccc(O)c2)cc1
< 0.949 nM: IC50 (second compound 0.1 µM) | IC50 (second compound 0.316 µM) | IC50 (second compound 1 µM) | IC50 (second compound 3.16 µM) | IC50 (second compound 10 µM)
active: viability, T/C (second compound 0.1 µM, first compound 0.000949 µM) 4.87% | viability, T/C (second compound 0.1 µM, first compound 0.003 µM) 2.64% | viability, T/C [1] 1.33% | viability, T/C [2] 1.09% | viability, T/C [3] 0.85% | viability, T/C [4] 1.26% | viability, T/C (second compound 0.316 µM, first compound 0.000949 µM) 4.37% | viability, T/C (second compound 0.316 µM, first compound 0.003 µM) 2.24% | viability, T/C [5] 1.21% | viability, T/C [6] 0.88% | viability, T/C [7] 1.1% | viability, T/C [8] 1.26% | viability, T/C (second compound 1 µM, first compound 0.000949 µM) 4.54% | viability, T/C (second compound 1 µM, first compound 0.003 µM) 2.69% | viability, T/C [9] 1.23% | viability, T/C [10] 1.12% | viability, T/C [11] 1.21% | viability, T/C [12] 1.22% | viability, T/C (second compound 3.16 µM, first compound 0.000949 µM) 4.42% | viability, T/C (second compound 3.16 µM, first compound 0.003 µM) 2.55% | viability, T/C [13] 1.18% | viability, T/C [14] 0.79% | viability, T/C [15] 1.06% | viability, T/C [16] 1.13% | viability, T/C (second compound 10 µM, first compound 0.000949 µM) 5.79% | viability, T/C (second compound 10 µM, first compound 0.003 µM) 3.19% | viability, T/C [17] 1.1% | viability, T/C [18] 1.82% | viability, T/C [19] 2.43% | viability, T/C [20] 1.15%

NC1CC1c1ccc(-c2cccc(O)c2)cc1 (stereo not given)
inactive: viability, T/C (compound 0.1 µM) 80.2% | viability, T/C (compound 0.316 µM) 71.4% [middle of 24 runs] | viability, T/C (compound 1 µM) 67.6% [middle of 25 runs] | viability, T/C (compound 3.16 µM) 64.6% [middle of 25 runs] | viability, T/C (compound 10 µM) 54.7% [middle of 25 runs]

CC(C)CC(NC(=O)CNC(=O)c1cc(Cl)ccc1Cl)B1OC(=O)CC(CC(=O)O)(C(=O)O)O1 (stereo not given) + NC1CCC(NC2CC2c2ccccc2)CC1
active: viability, T/C (second compound 0.1 µM, first compound 0.0316 µM) 2.33% | viability, T/C (second compound 0.1 µM, first compound 0.1 µM) 0.79% | viability, T/C (second compound 0.316 µM, first compound 0.0316 µM) 2.1% | viability, T/C (second compound 0.316 µM, first compound 0.1 µM) 0.69% | viability, T/C (second compound 1 µM, first compound 0.0316 µM) 2.39% | viability, T/C (second compound 1 µM, first compound 0.1 µM) 0.76% | viability, T/C (second compound 3.16 µM, first compound 0.0316 µM) 1.7% | viability, T/C (second compound 3.16 µM, first compound 0.1 µM) 0.63% | viability, T/C (second compound 10 µM, first compound 0.0316 µM) 1.43% | viability, T/C (second compound 10 µM, first compound 0.1 µM) 0.5%
4.66 nM: IC50 (second compound 1 µM)
4.8 nM: IC50 (second compound 0.1 µM)
4.24 nM: IC50 (second compound 10 µM)
inactive: viability, T/C (second compound 0.1 µM, first compound 0.000316 µM) 75.8% | viability, T/C (second compound 0.1 µM, first compound 0.001 µM) 69.4% | viability, T/C (second compound 0.1 µM, first compound 0.00316 µM) 70.9% | viability, T/C (second compound 0.1 µM, first compound 0.01 µM) 13.4% | viability, T/C (second compound 0.316 µM, first compound 0.000316 µM) 60.9% | viability, T/C (second compound 0.316 µM, first compound 0.001 µM) 70.9% | viability, T/C (second compound 0.316 µM, first compound 0.00316 µM) 61.9% | viability, T/C (second compound 0.316 µM, first compound 0.01 µM) 16.1% | viability, T/C (second compound 1 µM, first compound 0.000316 µM) 63.8% | viability, T/C (second compound 1 µM, first compound 0.001 µM) 73% | viability, T/C (second compound 1 µM, first compound 0.00316 µM) 66.7% | viability, T/C (second compound 1 µM, first compound 0.01 µM) 17.2% | viability, T/C (second compound 3.16 µM, first compound 0.000316 µM) 54.9% | viability, T/C (second compound 3.16 µM, first compound 0.001 µM) 67% | viability, T/C (second compound 3.16 µM, first compound 0.00316 µM) 63.5% | viability, T/C (second compound 3.16 µM, first compound 0.01 µM) 15.9% | viability, T/C (second compound 10 µM, first compound 0.000316 µM) 58.6% | viability, T/C (second compound 10 µM, first compound 0.001 µM) 69% | viability, T/C (second compound 10 µM, first compound 0.00316 µM) 63.1% | viability, T/C (second compound 10 µM, first compound 0.01 µM) 11.7%
4.25 nM: IC50 (second compound 3.16 µM)
4.28 nM: IC50 (second compound 0.316 µM)

COc1cc(C2c3cc4c(cc3C(OC3OC5COC(C)OC5C(O)C3O)C3COC(=O)C23)OCO4)cc(OC)c1O (stereo not given) + NC1CCC(NC2CC2c2ccccc2)CC1
24.2 nM: IC50 (second compound 0.316 µM)
inactive: viability, T/C [1] 62.7% | viability, T/C [2] 48.7% | viability, T/C [3] 27.9% | viability, T/C [4] 20.8% | viability, T/C (second compound 0.1 µM, first compound 0.949 µM) 11.2% | viability, T/C [5] 67.6% | viability, T/C [6] 45.2% | viability, T/C [7] 29.6% | viability, T/C [8] 21.5% | viability, T/C (second compound 0.316 µM, first compound 0.949 µM) 8.7% | viability, T/C [9] 56% | viability, T/C [10] 42.9% | viability, T/C [11] 30.5% | viability, T/C [12] 20% | viability, T/C (second compound 1 µM, first compound 0.949 µM) 8.76% | viability, T/C [13] 56.1% | viability, T/C [14] 40.5% | viability, T/C [15] 30.7% | viability, T/C [16] 19% | viability, T/C (second compound 3.16 µM, first compound 0.949 µM) 8.55% | viability, T/C [17] 50.1% | viability, T/C [18] 38.8% | viability, T/C [19] 27.3% | viability, T/C [20] 16.3%
16.3 nM: IC50 (second compound 1 µM)
15.3 nM: IC50 (second compound 3.16 µM)
23.8 nM: IC50 (second compound 0.1 µM)
active: viability, T/C (second compound 0.1 µM, first compound 3 µM) 5.3% | viability, T/C (second compound 0.316 µM, first compound 3 µM) 6.82% | viability, T/C (second compound 1 µM, first compound 3 µM) 5.56% | viability, T/C (second compound 3.16 µM, first compound 3 µM) 7.39% | viability, T/C (second compound 10 µM, first compound 0.949 µM) 9.55% | viability, T/C (second compound 10 µM, first compound 3 µM) 6.68%
9.52 nM: IC50 (second compound 10 µM)
